Test results reported in article PMC11173485, “Connecting GSK-3β Inhibitory Activity with IKK-β or ROCK-1 Inhibition to Target Tau Aggregation and Neuroinflammation in Alzheimer’s Disease—Discovery, In Vitro and In Cellulo Activity of Thiazole-Based Inhibitors” (Molecules, 2024).
Read-outs that look alike come from different tables or passages of the source.

What was measured:
Format in all cases: biochemical
GSK-3β [1] = biological target: T1, GSK-3β (Homo sapiens, UniProt P49841); assay: Kinetic studies of GSK-3β inhibition (ADP-Glo, varying ATP); parameters: purchased Promega
Procedure: Non-linear regression analysis of the Michaelis–Menten equation was conducted on ATP-velocity curves to calculate the Vmax and Km parameters. […] Lineweaver–Burk and Cornish–Bowden plots, included in the Supporting Information (Figure S1A,B), further illustrate this observation. […] (refer to Supporting Information, Figure S2). The negative Ki value was directly derived from the plot at the x-axis intersection.
Kinetic studies were performed using the GSK-3β Kinase Enzyme System (Promega; Madison, WI, USA) and ADP-Glo™ bioluminescent assay (Promega; Madison, WI, USA), following the manufacturer’s instructions. The general workflow is described in Section 6.9. Evaluation of In Vitro Inhibitory Potencies towards Kinases GSK-3β, IKK-β, and ROCK-1. […] The substrate concentration was kept constant. The luminescence was measured using the EnSpire multimode microplate reader (PerkinElmer, Waltham, MA, USA). Each data point was collected in triplicate. Vmax and Km values of the Michaelis–Menten kinetics were calculated using nonlinear regression from ATP–velocity curves. Lineweaver–Burk and Cornish–Bowden plots were obtained via linear regression in GraphPad Prism (GraphPad Prism 9; GraphPad Software, San Diego, CA, USA). The Ki value of inhibitor 62 was determined by replotting the Lineweaver–Burk plots data (Km versus [I]).
Kinetic studies of GSK-3β inhibition by compound 62
type of GSK-3β inhibition by compound 62; V = initial velocity rate, S = ATP concentration,
I = inhibitor concentration.
Figure S2. Determination of Ki value for ATP-competitive inhibitor 62. Data replot from
= Michaelis-Menten constant.
(also on this page, place not known: K i -15 -10 -5 5 10 15 -100 -50 50 100 Cmpd 62_Ki determination I [nM] Km -Ki) […]

GSK-3β [2] = biological target: T1, GSK-3β; assay: Eurofins KinaseProfiler radiometric selectivity screen; parameters: purchased Eurofins Discovery (KinaseProfiler service)
Procedure: (§1) Compound 62 is an ATP-competitive inhibitor of GSK-3β, raising concerns about selectivity. Therefore, we performed a selectivity screening at Eurofins Discovery on the CMGC group of kinases, which included the CDK, DYRK, MAPK, and GSK families (Figure 3 and Table S1 in the SI).
(§2) Selectivity studies for compound 62
(§3) Selectivity studies were performed at Eurofins in Kinase Enzymatic Radiometric [Km ATP]
(§4) Kinase Profiler Lead Hunter Assay. The percentage of enzymatic activity was measured at 1
(§5) µM of compound 62 in duplicate for 17 selected kinases.
(§6) Table S1. Inhibitory activity of compound 62 against panel of selected CMGC kinases.
(§7) kinase % of enzyme activity at 1 μM of compound 62±SD*
(§8) *Where n = 2, the value reported here is actually range / √ 2 .

CDK9/cyclin T1 = biological target: T2, CDK9/cyclin T1 (Homo sapiens, UniProt P50750); assay: as above; conditions: Km ATP, remaining enzyme activity, n = 2
T2 construct: purchased Eurofins Discovery (KinaseProfiler service)
Procedure: as §1, §2, §3, §4, §5, §6, §7, §8

JNK3 = biological target: T3, JNK3 (Homo sapiens, UniProt P53779); assay: as above; conditions: Km ATP, remaining enzyme activity, n = 2
T3 construct: purchased Eurofins Discovery (KinaseProfiler service)
Procedure: as §1, §2, §3, §4, §5, §6, §7, §8

JNK2α2 = biological target: T4, JNK2α2 (Homo sapiens, UniProt P45984); assay: as above; conditions: Km ATP, remaining enzyme activity, n = 2
T4 construct: purchased Eurofins Discovery (KinaseProfiler service)
Procedure: as §1, §2, §3, §4, §5, §6, §7, §8

CDK2/cyclinA = biological target: T5, CDK2/cyclinA (Homo sapiens, UniProt P24941); assay: as above; conditions: Km ATP, remaining enzyme activity, n = 2
T5 construct: purchased Eurofins Discovery (KinaseProfiler service)
Procedure: as §1, §2, §3, §4, §5, §6, §7, §8

CDK1/cyclinB = biological target: T6, CDK1/cyclinB (Homo sapiens, UniProt P06493); assay: as above; conditions: Km ATP, remaining enzyme activity, n = 2
T6 construct: purchased Eurofins Discovery (KinaseProfiler service)
Procedure: as §1, §2, §3, §4, §5, §6, §7, §8

SAPK2b = biological target: T7, SAPK2b (Homo sapiens, UniProt Q15759); assay: as above; conditions: Km ATP, remaining enzyme activity, n = 2
T7 construct: purchased Eurofins Discovery (KinaseProfiler service)
Procedure: as §1, §2, §3, §4, §5, §6, §7, §8

GSK-3α = biological target: T8, GSK-3α (Homo sapiens, UniProt P49840); assay: as above; conditions: Km ATP, remaining enzyme activity, n = 2
T8 construct: purchased Eurofins Discovery (KinaseProfiler service)
Procedure: as §1, §2, §3, §4, §5, §6, §7, §8

CDK6/cyclinD3 = biological target: T9, CDK6/cyclinD3 (Homo sapiens, UniProt Q00534); assay: as above; conditions: Km ATP, remaining enzyme activity, n = 2
T9 construct: purchased Eurofins Discovery (KinaseProfiler service)
Procedure: as §1, §2, §3, §4, §5, §6, §7, §8

CDK7/cyclinH/ MAT1 = biological target: T10, CDK7/cyclinH/ MAT1 (Homo sapiens, UniProt P50613); assay: as above; conditions: Km ATP, remaining enzyme activity, n = 2
T10 construct: purchased Eurofins Discovery (KinaseProfiler service)
Procedure: as §1, §2, §3, §4, §5, §6, §7, §8

DYRK1B = biological target: T11, DYRK1B (Homo sapiens, UniProt Q9Y463); assay: as above; conditions: Km ATP, remaining enzyme activity, n = 2
T11 construct: purchased Eurofins Discovery (KinaseProfiler service)
Procedure: as §1, §2, §3, §4, §5, §6, §7, §8

CDK4/cyclinD3 = biological target: T12, CDK4/cyclinD3 (Homo sapiens, UniProt P11802); assay: as above; conditions: Km ATP, remaining enzyme activity, n = 2
T12 construct: purchased Eurofins Discovery (KinaseProfiler service)
Procedure: as §1, §2, §3, §4, §5, §6, §7, §8

SAPK2a(T106M) = biological target: T13, SAPK2a(T106M) (Homo sapiens, UniProt Q16539, T106M); assay: as above; conditions: Km ATP, remaining enzyme activity, n = 2
T13 construct: purchased Eurofins Discovery (KinaseProfiler service)
Procedure: as §1, §2, §3, §4, §5, §6, §7, §8

MAPK2 = biological target: T14, MAPK2 (Homo sapiens, UniProt P28482); assay: as above; conditions: Km ATP, remaining enzyme activity, n = 2
T14 construct: purchased Eurofins Discovery (KinaseProfiler service)
Procedure: as §1, §2, §3, §4, §5, §6, §7, §8

DYRK1A = biological target: T15, DYRK1A (Homo sapiens, UniProt Q13627); assay: as above; conditions: Km ATP, remaining enzyme activity, n = 2
T15 construct: purchased Eurofins Discovery (KinaseProfiler service)
Procedure: as §1, §2, §3, §4, §5, §6, §7, §8

SAPK3 = biological target: T16, SAPK3 (Homo sapiens, UniProt P53778); assay: as above; conditions: Km ATP, remaining enzyme activity, n = 2
T16 construct: purchased Eurofins Discovery (KinaseProfiler service)
Procedure: as §1, §2, §3, §4, §5, §6, §7, §8

MAPK1 = biological target: T17, MAPK1 (Homo sapiens, UniProt P27361); assay: as above; conditions: Km ATP, remaining enzyme activity, n = 2
T17 construct: purchased Eurofins Discovery (KinaseProfiler service)
Procedure: as §1, §2, §3, §4, §5, §6, §7, §8

T1 sequence (P49841 whole entry): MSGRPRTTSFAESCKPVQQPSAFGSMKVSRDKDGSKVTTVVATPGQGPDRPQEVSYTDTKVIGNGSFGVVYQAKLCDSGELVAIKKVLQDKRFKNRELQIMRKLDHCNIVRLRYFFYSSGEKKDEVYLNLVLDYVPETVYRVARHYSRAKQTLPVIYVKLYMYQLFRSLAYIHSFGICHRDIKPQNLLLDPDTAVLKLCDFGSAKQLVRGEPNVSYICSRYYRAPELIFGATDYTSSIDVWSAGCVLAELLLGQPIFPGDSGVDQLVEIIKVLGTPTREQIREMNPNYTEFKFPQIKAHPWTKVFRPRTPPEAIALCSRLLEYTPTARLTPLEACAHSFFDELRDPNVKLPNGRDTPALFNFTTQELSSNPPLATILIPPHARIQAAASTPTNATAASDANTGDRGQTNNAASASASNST
T16 sequence (P53778 whole entry): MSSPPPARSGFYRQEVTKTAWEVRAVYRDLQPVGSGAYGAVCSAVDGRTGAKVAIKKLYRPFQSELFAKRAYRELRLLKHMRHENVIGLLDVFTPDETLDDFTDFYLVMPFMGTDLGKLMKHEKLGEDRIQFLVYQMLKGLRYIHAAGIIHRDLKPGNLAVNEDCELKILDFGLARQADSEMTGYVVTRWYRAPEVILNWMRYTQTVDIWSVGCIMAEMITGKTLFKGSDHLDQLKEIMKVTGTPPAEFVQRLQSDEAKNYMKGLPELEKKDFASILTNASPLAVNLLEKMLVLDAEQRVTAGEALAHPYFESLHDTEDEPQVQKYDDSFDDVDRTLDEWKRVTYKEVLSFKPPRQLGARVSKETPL
T9 sequence (Q00534 whole entry): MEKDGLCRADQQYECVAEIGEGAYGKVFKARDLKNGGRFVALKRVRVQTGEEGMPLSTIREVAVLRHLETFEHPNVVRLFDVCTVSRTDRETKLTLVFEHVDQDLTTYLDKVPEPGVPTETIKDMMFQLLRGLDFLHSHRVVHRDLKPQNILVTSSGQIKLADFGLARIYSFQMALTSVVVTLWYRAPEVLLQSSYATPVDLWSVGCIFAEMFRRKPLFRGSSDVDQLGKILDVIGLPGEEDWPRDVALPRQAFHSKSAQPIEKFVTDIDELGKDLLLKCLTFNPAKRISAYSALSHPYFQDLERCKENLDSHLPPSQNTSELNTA
T9 sequence (P30281 whole entry partner): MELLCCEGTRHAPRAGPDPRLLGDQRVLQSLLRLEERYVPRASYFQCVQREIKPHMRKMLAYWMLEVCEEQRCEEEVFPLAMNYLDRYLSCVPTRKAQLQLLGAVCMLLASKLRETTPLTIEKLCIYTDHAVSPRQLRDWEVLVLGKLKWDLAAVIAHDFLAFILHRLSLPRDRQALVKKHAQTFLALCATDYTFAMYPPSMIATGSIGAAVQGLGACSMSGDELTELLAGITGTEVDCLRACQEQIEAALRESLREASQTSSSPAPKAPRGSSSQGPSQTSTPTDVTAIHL
T10 sequence (P50613 whole entry): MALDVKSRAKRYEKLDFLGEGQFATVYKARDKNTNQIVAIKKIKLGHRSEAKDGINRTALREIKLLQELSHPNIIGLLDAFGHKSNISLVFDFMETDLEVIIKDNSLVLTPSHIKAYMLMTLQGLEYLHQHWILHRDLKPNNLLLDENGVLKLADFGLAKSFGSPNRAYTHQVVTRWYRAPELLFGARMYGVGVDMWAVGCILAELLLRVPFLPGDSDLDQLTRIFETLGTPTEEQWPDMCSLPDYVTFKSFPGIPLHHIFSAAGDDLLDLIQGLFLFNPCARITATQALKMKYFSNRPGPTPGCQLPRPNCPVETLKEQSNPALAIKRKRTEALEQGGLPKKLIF
T10 sequence (P51946 whole entry partner): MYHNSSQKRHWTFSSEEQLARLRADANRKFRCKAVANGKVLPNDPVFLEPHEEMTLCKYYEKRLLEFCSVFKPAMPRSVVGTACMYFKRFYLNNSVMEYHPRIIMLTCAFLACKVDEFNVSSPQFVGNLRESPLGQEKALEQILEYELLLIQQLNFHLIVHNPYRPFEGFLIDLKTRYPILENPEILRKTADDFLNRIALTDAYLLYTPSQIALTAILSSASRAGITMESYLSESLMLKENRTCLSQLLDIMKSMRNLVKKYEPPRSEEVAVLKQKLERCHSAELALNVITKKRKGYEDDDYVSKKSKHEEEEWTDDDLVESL
T10 sequence (P51948 whole entry partner): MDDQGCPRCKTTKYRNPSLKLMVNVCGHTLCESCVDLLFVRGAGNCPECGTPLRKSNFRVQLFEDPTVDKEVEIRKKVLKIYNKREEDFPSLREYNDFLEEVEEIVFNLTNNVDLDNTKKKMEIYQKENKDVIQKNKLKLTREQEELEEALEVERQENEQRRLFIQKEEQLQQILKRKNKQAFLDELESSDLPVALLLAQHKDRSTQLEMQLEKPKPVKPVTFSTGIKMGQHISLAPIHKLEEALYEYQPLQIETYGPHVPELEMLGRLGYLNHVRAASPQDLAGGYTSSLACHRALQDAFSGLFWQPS
T2 sequence (P50750 whole entry): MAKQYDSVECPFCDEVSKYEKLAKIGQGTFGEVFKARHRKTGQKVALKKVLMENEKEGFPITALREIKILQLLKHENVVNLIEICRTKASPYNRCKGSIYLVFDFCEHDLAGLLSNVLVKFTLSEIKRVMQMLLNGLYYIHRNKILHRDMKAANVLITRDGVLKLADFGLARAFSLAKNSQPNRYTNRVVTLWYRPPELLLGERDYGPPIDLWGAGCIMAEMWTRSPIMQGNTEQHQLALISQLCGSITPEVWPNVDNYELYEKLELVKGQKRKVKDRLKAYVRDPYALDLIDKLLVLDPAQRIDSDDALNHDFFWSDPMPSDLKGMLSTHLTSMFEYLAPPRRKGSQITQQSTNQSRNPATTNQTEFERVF
T2 sequence (O60563 whole entry partner): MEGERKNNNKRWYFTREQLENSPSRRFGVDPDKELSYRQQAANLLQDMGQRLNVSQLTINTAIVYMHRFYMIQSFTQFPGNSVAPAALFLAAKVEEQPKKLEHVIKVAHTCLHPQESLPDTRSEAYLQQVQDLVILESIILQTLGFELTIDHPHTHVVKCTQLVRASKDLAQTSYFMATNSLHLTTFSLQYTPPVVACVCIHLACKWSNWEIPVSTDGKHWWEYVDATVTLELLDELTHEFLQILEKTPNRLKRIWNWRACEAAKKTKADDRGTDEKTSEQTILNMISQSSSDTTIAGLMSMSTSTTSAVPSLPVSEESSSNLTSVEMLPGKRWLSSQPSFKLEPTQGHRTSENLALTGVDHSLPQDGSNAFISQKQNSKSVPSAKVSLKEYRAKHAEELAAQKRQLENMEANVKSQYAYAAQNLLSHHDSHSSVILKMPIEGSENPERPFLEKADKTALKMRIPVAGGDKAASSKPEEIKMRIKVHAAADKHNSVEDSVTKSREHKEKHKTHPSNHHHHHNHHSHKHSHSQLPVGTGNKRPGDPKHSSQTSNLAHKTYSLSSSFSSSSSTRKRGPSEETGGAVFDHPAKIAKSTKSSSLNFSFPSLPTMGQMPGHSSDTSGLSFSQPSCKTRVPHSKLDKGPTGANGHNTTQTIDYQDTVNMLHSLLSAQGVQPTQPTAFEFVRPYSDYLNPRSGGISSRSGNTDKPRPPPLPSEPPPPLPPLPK
T8 sequence (P49840 whole entry): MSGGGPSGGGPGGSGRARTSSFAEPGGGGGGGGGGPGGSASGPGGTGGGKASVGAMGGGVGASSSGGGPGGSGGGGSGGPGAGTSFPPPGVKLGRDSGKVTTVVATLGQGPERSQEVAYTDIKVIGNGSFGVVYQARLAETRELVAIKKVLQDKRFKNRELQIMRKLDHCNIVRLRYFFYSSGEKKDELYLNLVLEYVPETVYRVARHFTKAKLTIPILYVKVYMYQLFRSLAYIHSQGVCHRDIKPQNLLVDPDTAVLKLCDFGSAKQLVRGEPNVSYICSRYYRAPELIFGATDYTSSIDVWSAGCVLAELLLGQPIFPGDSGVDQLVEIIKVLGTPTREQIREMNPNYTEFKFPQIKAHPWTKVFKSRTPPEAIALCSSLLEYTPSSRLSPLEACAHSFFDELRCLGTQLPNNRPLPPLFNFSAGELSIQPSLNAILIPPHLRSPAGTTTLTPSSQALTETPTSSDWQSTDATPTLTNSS
T7 sequence (Q15759 whole entry): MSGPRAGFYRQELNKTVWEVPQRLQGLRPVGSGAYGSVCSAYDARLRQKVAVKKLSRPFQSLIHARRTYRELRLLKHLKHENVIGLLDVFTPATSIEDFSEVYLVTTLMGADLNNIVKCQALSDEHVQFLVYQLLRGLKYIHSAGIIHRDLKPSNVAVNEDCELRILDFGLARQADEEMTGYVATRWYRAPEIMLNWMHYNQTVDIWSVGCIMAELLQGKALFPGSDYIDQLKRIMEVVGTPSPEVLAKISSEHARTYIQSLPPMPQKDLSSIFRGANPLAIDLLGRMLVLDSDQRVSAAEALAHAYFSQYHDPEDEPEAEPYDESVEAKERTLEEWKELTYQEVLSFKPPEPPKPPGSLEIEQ
T4 sequence (P45984 whole entry): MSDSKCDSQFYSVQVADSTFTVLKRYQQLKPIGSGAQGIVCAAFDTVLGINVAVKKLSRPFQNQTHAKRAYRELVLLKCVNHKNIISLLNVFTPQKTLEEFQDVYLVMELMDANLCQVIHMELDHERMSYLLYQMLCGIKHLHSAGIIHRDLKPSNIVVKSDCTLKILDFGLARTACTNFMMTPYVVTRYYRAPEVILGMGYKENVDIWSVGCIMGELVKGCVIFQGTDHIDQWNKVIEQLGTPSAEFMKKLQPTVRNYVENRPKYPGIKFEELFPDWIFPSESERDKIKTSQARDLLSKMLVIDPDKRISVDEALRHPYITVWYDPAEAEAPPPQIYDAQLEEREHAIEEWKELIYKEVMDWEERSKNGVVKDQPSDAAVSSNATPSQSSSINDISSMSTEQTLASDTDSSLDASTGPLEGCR

O=C1NC2(CCOC2)Nc2cc(-c3ccnc(NC(=O)C4CC4)c3)sc21 (stereo not drawn) [Compound 62, N-(4-(4′-Oxo-3′,4,4′,5-tetrahydro-1′H,2H-spiro[furan-3,2′-thieno [3,2-d]pyrimidin]-6′-yl)pyridin-2-yl)cyclopropanecarboxamide] was tested, and the “type of GSK-3β inhibition” value (GSK-3β [1]; ATP 10-100 μM, inhibitor 0-100 nM, Km rises, Vmax preserved) was “ATP-competitive”, the Ki (GSK-3β [1]; replot from Lineweaver-Burk plots, unit inferred, read-out: Determined Ki (Figure S2)) was 2.22 nM and the Ki (GSK-3β [1]; replot of Lineweaver–Burk data, Km versus [I], read-out: Ki GSK-3β) was 2 nM. For the same molecule, the “% of enzyme activity at 1 μM of compound 62±SD, GSK-3β” value (GSK-3β [2]; Km ATP, remaining enzyme activity, n = 2) was 1±1%, the inhibition at 1 µM (GSK-3β [2]; text says GSK family) was 99% and the “% of enzyme activity at 1 μM of compound 62±SD, CDK9/cyclin T1” value (CDK9/cyclin T1) was 16±2%. For the same molecule, the “% of enzyme activity at 1 μM of compound 62±SD, JNK3” value (JNK3) was 21±2%, the “% of enzyme activity at 1 μM of compound 62±SD, JNK2α2” value (JNK2α2) was 89±14% and the “% of enzyme activity at 1 μM of compound 62±SD, CDK2/cyclinA” value (CDK2/cyclinA) was 26±2%. For the same molecule, the “% of enzyme activity at 1 μM of compound 62±SD, CDK1/cyclinB” value (CDK1/cyclinB) was 33±1%, the “% of enzyme activity at 1 μM of compound 62±SD, SAPK2b” value (SAPK2b) was 98±1% and the “% of enzyme activity at 1 μM of compound 62±SD, GSK-3α” value (GSK-3α) was 0±0%. The “% of enzyme activity at 1 μM of compound 62±SD, CDK6/cyclinD3” value (CDK6/cyclinD3) was 88±0%, the “% of enzyme activity at 1 μM of compound 62±SD, CDK7/cyclinH/ MAT1” value (CDK7/cyclinH/ MAT1) was 57±1% and the “% of enzyme activity at 1 μM of compound 62±SD, DYRK1B” value (DYRK1B) was 1±1%. For the same molecule, the “% of enzyme activity at 1 μM of compound 62±SD, CDK4/cyclinD3” value (CDK4/cyclinD3) was 83±5%, the “% of enzyme activity at 1 μM of compound 62±SD, SAPK2a(T106M)” value (SAPK2a(T106M)) was 80±1% and the “% of enzyme activity at 1 μM of compound 62±SD, MAPK2” value (MAPK2) was 73±7%. The “% of enzyme activity at 1 μM of compound 62±SD, DYRK1A” value (DYRK1A) was 1±1%, the “% of enzyme activity at 1 μM of compound 62±SD, SAPK3” value (SAPK3) was 22±3% and the “% of enzyme activity at 1 μM of compound 62±SD, MAPK1” value (MAPK1) was 37±2%.
